This passage reports IC50 and EC50 results from patent US20260207618A1, “PYRIMIDINE CARBOXAMIDE COMPOUNDS” (Acrivon Therapeutics, Inc., priority 2022, published 2026).

SMILES strings stand for the structures. A value given as a limit tells only on which side of the number the result lay.

For orientation: IC50 means the concentration at which inhibition is half-maximal. As a reminder, the EC50 is the midpoint of the concentration-response curve.

Assay [1] concerns the target T1, recombinant human Wee1A kinase (Homo sapiens, UniProt P30291).
T1 construct: full length Wee1A kinase was expressed by baculovirus in insect cells; purchased Invitrogen PV3817; host or cells: insect cells (baculovirus)
In words: LanthaScreen Europium (Eu) Kinase Binding Assay, Wee1A kinase (TR-FRET tracer displacement). The settings on record: 30 nM tracer 178, 5 nM Wee1A kinase, 60 minutes at room temperature. From the text: We used a LanthaScreen Europium (Eu) Kinase Binding Assay to determine the binding of provided compounds to Wee1A kinase. The assay utilizes an Alexa Fluor 647-labeled ATP competitive kinase tracer that binds to the ATP binding site of a GST-tagged Wee1A kinase, while a europium (Eu) labeled antibody binds to the GST tag. The proximity of fluorescently labeled kinase tracer and europium (Eu) donor fluorophore antibody leads to fluorescence resonance energy transfer (FRET) to the fluorescence label (acceptor) upon excitation of the Eu (donor). Displacement of tracer from the ATP-binding site by a test compound disturbs the proximity between both labels thus lowering the FRET.
This time resolved-FRET binding assay was performed in white 384-well low volume plates (Greiner, cat #784075), at room temperature in kinase buffer A (KBA; Invitrogen cat #PV3189), consisting of 50 mM HEPES-NaOH (pH 7.5), 0.01% Brij-35, 10 mM MgCl2, and 1 mM EGTA. 5 μl of compound (diluted in reaction buffer, to 1% DMSO) were added to various wells in the plate, followed by 5 μl each of recombinant human Wee1A kinase (full length Wee1A kinase was expressed by baculovirus in insect cells using a N-terminal GST tag (MW: 99.1 kDa) (Invitrogen cat #PV3817) and LanthaScreen Eu-anti-GST antibody (Invitrogen, cat #PV5594). After this, 5 μl of kinase tracer 178 (Invitrogen, cat #PV5593) was added to the plate and the plate was incubated for 60 minutes at room temperature. The final assay conditions in each well were: 30 nM tracer 178, 5 nM Wee1A kinase and 2 nM Eu-labeled antibody in total assay volume of 15 μl. An Envision 2104 (Perkin-Elmer) Plate Reader with the following time-resolve fluorescence setting was used for performing LanthaScreen kinase binding assay. • Excitation 320 nm (30 nm bandpass) • Kinase Tracer Emission 665 nm (10 nm bandpass) • LanthaScreen Eu-anti-Tag Antibody Emission 615 nm (10 nm bandpass) • Dichroic Mirror Instrument dependent • Delay Time 100 μs • Integration Time 200 μs
To calculate the emission ratio, the acceptor/tracer emission ([…]) was divided by the antibody/donor emission ([…]) and the average of duplicate measurement was used for calculations. Data plotting, analysis of binding, and curve fitting was done using Excel add-in XLfit version 5.5.0.5 (IDBS, Guildford, United Kingdom).
For orientation: Time-resolved FRET reads energy transfer from a long-lived donor to a nearby acceptor.

Assay [2] deals with Cdk1 phosphorylated on tyrosine 15. In words: High-content imaging of pCdk1 Y15 by immunofluorescence in ACHN cells. Type of assay: cell-based. The following applies: Homo sapiens, high-content imaging (IF), 4 h, 7 to 5000 nM, read-out: CDK1 Tyr15 Phosphorylation EC50 (IC50). The protocol: ACHN renal cell carcinoma cell line (ATCC) was cultured in Minimum Essential Medium Eagle supplemented with 10% fetal calf serum (Sigma), 1% Penicillin-Streptomycin and 10 mM HEPES buffer (HyClone). Cell cultures were kept in a humidified incubator at 37° C. and 5% CO2. Cells were routinely tested for Mycoplasma contamination.
High-content imaging of ACHN renal cell carcinoma cells was used for quantification of CDK1 phosphorylated on tyrosine 15 by immunofluorescence (“IF”). 20 000 cells per well were seeded in tissue culture treated 96 well plates and treated with compounds at concentrations ranging from 7 to 5000 nM for 4 h. Cells were fixated for 15 minutes in 4% paraformaldehyde solution, washed in PBS and permeabilized using 0.2% Triton X-100. Blocking was performed for 1 h at RT using Blocker FL Fluorescent Blocking Buffer (Thermo Scientific), thereafter cells were incubated with primary antibody (rabbit anti-pCDK1 Y^15, #4539, Cell Signaling Technology) at 4° C. ON. Alexa Fluor Plus 647 labelled goat anti-rabbit (A32733. Thermo Scientific) was used as secondary antibody. After washing in PBS, nuclei were stained with DAPI solution for 10 min at RT, protected from light. Cells were imaged using an ImageXpress Pico automated imaging system and CellReporter Xpress software (Molecular Devices). The percentage cells with nuclear positivity for pCdk1 Y^15 compared to DMSO control was determined for each well and drug dose response curves and EC50 values were calculated and visualized using GraphPad Prism.

T1 sequence (P30291 whole entry): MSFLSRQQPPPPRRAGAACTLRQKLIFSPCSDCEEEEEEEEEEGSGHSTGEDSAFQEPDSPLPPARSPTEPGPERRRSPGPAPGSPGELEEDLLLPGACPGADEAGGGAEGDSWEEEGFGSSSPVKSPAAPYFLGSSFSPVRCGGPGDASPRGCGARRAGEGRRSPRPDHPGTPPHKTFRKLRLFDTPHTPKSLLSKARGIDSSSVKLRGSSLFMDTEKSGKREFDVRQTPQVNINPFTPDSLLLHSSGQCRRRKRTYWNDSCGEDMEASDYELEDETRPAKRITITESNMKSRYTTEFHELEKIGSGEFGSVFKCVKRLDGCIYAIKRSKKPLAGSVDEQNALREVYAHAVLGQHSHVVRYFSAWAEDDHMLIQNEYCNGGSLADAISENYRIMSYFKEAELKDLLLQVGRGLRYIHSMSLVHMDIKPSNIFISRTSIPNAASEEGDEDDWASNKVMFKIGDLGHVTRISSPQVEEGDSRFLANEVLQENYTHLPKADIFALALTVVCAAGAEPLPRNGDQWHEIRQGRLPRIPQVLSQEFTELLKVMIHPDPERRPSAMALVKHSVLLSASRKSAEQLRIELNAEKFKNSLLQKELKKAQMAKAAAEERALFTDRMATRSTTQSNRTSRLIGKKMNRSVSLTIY

With `CN1CCN(c2ccc(Nc3ncc(C(=O)Nc4c(Cl)cccc4Cl)c(OCC4CCCO4)n3)cc2)CC1` (centres unmarked) [Compound 105], the IC50 in assay [1] is not above 0.01 µM. Besides, the EC50 in assay [2] is more than 1 µM.
For the compound `COc1nc(Nc2ccc(C3CCN(C)CC3)c(C)c2)ncc1C(=O)Nc1c(Br)cccc1C#N` [Compound 134, N-(2-bromo-6-cyanophenyl)-4-methoxy-2-((3-methyl-4-(1-methylpiperidin-4-yl)phenyl)amino)pyrimidine-5-carboxamide], the IC50 in assay [1] was not above 0.01 µM. Moreover, in assay [2], the EC50 fell in the range of 0.1 to 0.5 µM.
Turning to `COc1nc(Nc2ccc(N3CCCNCC3)cc2)ncc1C(=O)Nc1c(Cl)cccc1Br` [Compound 207, 2-((4-(1,4-diazepan-1-yl)phenyl)amino)-N-(2-bromo-6-chlorophenyl)-4-methoxypyrimidine-5-carboxamide], in assay [1], the IC50 was not above 0.01 µM. The EC50 in assay [2] fell in the range of 0.1 to 0.5 µM.
For `COc1nc(Nc2ccc([C@@H]3CCCNC3)c(C)c2)ncc1C(=O)Nc1c(Cl)cccc1Br` [Compound 199, (S)—N-(2-bromo-6-chlorophenyl)-4-methoxy-2-((3-methyl-4-(piperidin-3-yl)phenyl)amino)pyrimidine-5-carboxamide], in that order: not above 0.01 µM and 0.1 to 0.5 µM.
`CN1CCN(c2ccc(Nc3ncc(C(=O)Nc4c(Cl)cccc4Cl)c(OC4CC4)n3)cc2)CC1` [Compound 102, 4-cyclopropoxy-N-(2,6-dichlorophenyl)-2-((4-(4-methylpiperazin-1-yl)phenyl)amino)pyrimidine-5-carboxamide]: the IC50 in assay [1] is not above 0.01 µM. In addition, the EC50 in assay [2] lay in the range of 0.1 to 0.5 µM.
For `CCCOc1cc(Nc2ncc(C(=O)Nc3c(Cl)cccc3Br)c(OC)n2)ccc1C1CCN(C)CC1` [Compound 218, N-(2-bromo-6-chlorophenyl)-4-methoxy-2-((4-(1-methylpiperidin-4-yl)-3-propoxyphenyl)amino)pyrimidine-5-carboxamide], in that order: not above 0.01 µM and 0.1 to 0.5 µM.
For `COc1nc(Nc2ccc(OCCN(C)C)c(C)c2)ncc1C(=O)Nc1c(Cl)cccc1Cl` [Compound 143, N-(2,6-dichlorophenyl)-2-((4-(2-(dimethylamino)ethoxy)-3-methylphenyl)amino)-4-methoxypyrimidine-5-carboxamide], in that order: not above 0.01 µM and 0.1 to 0.5 µM.
Regarding `COc1nc(Nc2ccc(C3CCN(C)CC3)c(Cl)c2)ncc1C(=O)Nc1c(Cl)cccc1Br` [Compound 215, N-(2-bromo-6-chlorophenyl)-2-[3-chloro-4-(1-methyl-4-piperidyl)phenylamino]-4-methoxy-5-pyrimidinecarboxamide], in assay [1], the IC50 was not above 0.01 µM. Further, the EC50 in assay [2] is 0.1 to 0.5 µM.
For `COc1nc(Nc2ccc(N3CCN(C)CC3)cc2)ncc1C(=O)Nc1c(Cl)cccc1Cl` [Compound 111, N-(2,6-dichlorophenyl)-4-methoxy-2-((4-(4-methylpiperazin-1-yl)phenyl)amino)pyrimidine-5-carboxamide], in that order: not above 0.01 µM and 0.1 to 0.5 µM.
Regarding `COc1nc(Nc2ccc(C3CCN(C)CC3)c(C)c2)ncc1C(=O)Nc1c(C)cccc1Cl` [Compound 106, N-(2-chloro-6-methylphenyl)-4-methoxy-2-((3-methyl-4-(1-methylpiperidin-4-yl)phenyl)amino)pyrimidine-5-carboxamide], the IC50 in assay [1] was not above 0.01 µM. In assay [2], the EC50 was 0.1 to 0.5 µM.
In the case of `COc1nc(Nc2ccc(C3CCN(C)CC3)c(C)c2)ncc1C(=O)Nc1c(C)ccc(O)c1C` [Compound 142, N-(3-hydroxy-2,6-dimethylphenyl)-4-methoxy-2-((3-methyl-4-(1-methylpiperidin-4-yl)phenyl)amino)pyrimidine-5-carboxamide], the IC50 in assay [1] was not above 0.01 µM. Moreover, the EC50 in assay [2] was not above 0.1 µM.
Regarding `COc1nc(Nc2ccc(O[C@@H]3CCN(C)C3)c(C)c2)ncc1C(=O)Nc1c(Cl)cccc1Br` [Compound 211], the IC50 in assay [1] is not above 0.01 µM. In addition, the EC50 in assay [2] was in the range of 0.1 to 0.5 µM.
As for `CCOc1nc(Nc2cnn([C@@H](C)CNC)c2)ncc1C(=O)Nc1c(Cl)cccc1Br` [Compound 201, N-(2-bromo-6-chlorophenyl)-2-{1-[(S)-1-methyl-2-(methylamino)ethyl]-4-pyrazolylamino}-4-ethoxy-5-pyrimidinecarboxamide], in assay [1], the IC50 was not above 0.01 µM. Also, the EC50 in assay [2] is more than 1 µM.
For `COc1nc(Nc2cnn(C)c2)ncc1C(=O)Nc1c(Cl)ccc(O)c1Cl` [Compound 223, N-(2,6-dichloro-3-hydroxyphenyl)-4-methoxy-2-((1-methyl-1H-pyrazol-4-yl)amino)pyrimidine-5-carboxamide], the IC50 in assay [1] is not above 0.01 µM. For the same compound, the EC50 in assay [2] is more than 1 µM.
Take `COc1nc(Nc2ccc(C3CCN(C)CC3)c(C)c2)ncc1C(=O)Nc1c(C)cccc1Br` [Compound 108, N-(2-bromo-6-methylphenyl)-4-methoxy-2-((3-methyl-4-(1-methylpiperidin-4-yl)phenyl)amino)pyrimidine-5-carboxamide]: the IC50 in assay [1] is not above 0.01 µM. In addition, the EC50 in assay [2] was 0.1 to 0.5 µM.
With `COc1nc(Nc2ccc(OCCCN3CCOCC3)c(C)c2)ncc1C(=O)Nc1c(Cl)ccc(O)c1C` [Compound 150, N-(6-chloro-3-hydroxy-2-methylphenyl)-4-methoxy-2-((3-methyl-4-(3-morpholinopropoxy)phenyl)amino)pyrimidine-5-carboxamide], the IC50 in assay [1] was not above 0.01 µM. In assay [2], the EC50 was more than 1 µM.
Take `COc1nc(Nc2ccc(OC3CCN(C)CC3)c(C)c2)ncc1C(=O)Nc1c(Cl)cccc1Br` [Compound 220, N-(2-bromo-6-chlorophenyl)-4-methoxy-2-((3-methyl-4-((1-methylpiperidin-4-yl)oxy)phenyl)amino)pyrimidine-5-carboxamide]: the IC50 in assay [1] was not above 0.01 µM. Further, in assay [2], the EC50 was in the range of 0.1 to 0.5 µM.
Consider `COc1nc(Nc2cc(C)c(N3CCC(N(C)C)CC3)c(F)c2)ncc1C(=O)Nc1c(Cl)cccc1Br` [Compound 214], for which the IC50 in assay [1] is not above 0.01 µM. Moreover, in assay [2], the EC50 lay in the range of 0.1 to 0.5 µM.
Consider `COc1cc(Nc2ncc(C(=O)Nc3c(Cl)cccc3Br)c(OC)n2)ccc1C1CCN(C)CC1` [Compound 216, N-(2-bromo-6-chlorophenyl)-4-methoxy-2-((3-methoxy-4-(1-methylpiperidin-4-yl)phenyl)amino)pyrimidine-5-carboxamide], for which the IC50 in assay [1] is not above 0.01 µM. In assay [2], the EC50 lay in the range of 0.1 to 0.5 µM.
On to `C#Cc1cccc(Br)c1NC(=O)c1cnc(Nc2ccc(C3CCNCC3)c(C)c2)nc1OC` [Compound 184, N-(2-bromo-6-ethynylphenyl)-4-methoxy-2-((3-methyl-4-(piperidin-4-yl)phenyl)amino)pyrimidine-5-carboxamide], for which the IC50 in assay [1] is not above 0.01 µM. The EC50 in assay [2] fell in the range of 0.1 to 0.5 µM.
Turning to `COc1nc(Nc2ccc3c(cnn3C3CCN(C)CC3)c2)ncc1C(=O)Nc1c(Cl)cccc1Cl` [Compound 166], the IC50 in assay [1] is not above 0.01 µM. In addition, the EC50 in assay [2] fell in the range of 0.1 to 0.5 µM.
For `COc1nc(Nc2ccc(C3CCN(C)CC3)c(C)c2)ncc1C(=O)Nc1c(F)cc(F)cc1Cl` [Compound 127, N-(2-chloro-4,6-difluorophenyl)-4-methoxy-2-((3-methyl-4-(1-methylpiperidin-4-yl)phenyl)amino)pyrimidine-5-carboxamide], in that order: not above 0.01 µM and 0.1 to 0.5 µM.
